# Columns and labels:
# Serum prolactin levels = test: Prolactin release in mice; type: in vivo; conditions: intraperitoneal, 30 minutes prior to sampling
# Method: Mice were injected intraperitoneally with the compound to be tested 30 minutes prior to sampling. Trunk blood was collected by rapid decapitation, followed within 2 hours by preparation of serum. Serum prolactin levels were determined using a commercially available enzyme-linked immunoassay (AbCam, Cambridge, UK) following dilution of serum 5-fold in assay buffer.
# [1] = biological target: T1, human kappa opioid receptors (Homo sapiens, UniProt P41145); test: [35S]GTPγS stimulation, membranes from U2OS cells; type: biochemical; conditions: for Emax: read-out: GTPγS stimulation % efficacy
# T1 construct: expressed in transfected cells; host or cells: U2OS
# T1 sequence (P41145 whole entry): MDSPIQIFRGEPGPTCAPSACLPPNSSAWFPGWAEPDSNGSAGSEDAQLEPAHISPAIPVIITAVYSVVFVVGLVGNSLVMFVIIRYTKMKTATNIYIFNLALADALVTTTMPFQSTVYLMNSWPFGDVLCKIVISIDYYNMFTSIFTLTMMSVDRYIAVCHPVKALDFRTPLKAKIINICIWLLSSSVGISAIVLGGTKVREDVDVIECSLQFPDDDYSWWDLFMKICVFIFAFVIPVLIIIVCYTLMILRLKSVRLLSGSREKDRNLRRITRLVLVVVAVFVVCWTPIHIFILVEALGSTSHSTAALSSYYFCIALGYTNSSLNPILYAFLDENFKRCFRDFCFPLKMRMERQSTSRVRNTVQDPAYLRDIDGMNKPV
Compound,prolactin release (Serum prolactin levels; 5 mg/kg),EC50 [1] [µM],Emax [1] [%],prolactin release (Serum prolactin levels; 30 mg/kg)
"O=C(Cc1ccc(Cl)c(Cl)c1)N1CCN[C@@H]2COC[C@H](N3CCCC3)[C@H]21 (racemic) [Example 5A22, 1-[8-pyrrolidin-1-yl-2,3,4,4a,5,7,8,8a-octahydropyrano(3,4-b)pyrazin-1-yl]-2-(3,4-dichlorophenyl)ethanone]",significant prolactin release,0.063,96,–
"CN1CCN(C(=O)Cc2ccc(Cl)c(Cl)c2)[C@H]2[C@H]1COC[C@@H]2N1CCCC1 (racemic) [Example 5A23, 1-[4-methyl-8-pyrrolidin-1-yl-3,4a,5,7,8,8a-hexahydro-2H- -pyrano(3,4-b)pyrazin-1-yl]-2-(3,4-dichlorophenyl)ethanone]",–,0.046,76,significant prolactin release

# From patent publication US11091497B2, “Pyrano[3,4-b]pyrazine kappa opioid receptor ligands for treating addiction, pruritus, pain, and inflammation” (The Rockefeller University, priority 2017, dated 2021)
